What is called IC50 is the concentration needed to halve the response being measured. The term melting point denotes the temperature, or range, at which the solid turns liquid.

Where a name gives a salt, the structure may show the parent alone.

The target of the first series is T1, DPP-IV from porcine kidney (Sus scrofa, UniProt P22411).
T1 construct: DPP-IV from porcine kidney (Sigma, Munich); purchased Sigma, Munich; host or cells: porcine kidney (tissue-derived enzyme)
T1 sequence (P22411 whole entry): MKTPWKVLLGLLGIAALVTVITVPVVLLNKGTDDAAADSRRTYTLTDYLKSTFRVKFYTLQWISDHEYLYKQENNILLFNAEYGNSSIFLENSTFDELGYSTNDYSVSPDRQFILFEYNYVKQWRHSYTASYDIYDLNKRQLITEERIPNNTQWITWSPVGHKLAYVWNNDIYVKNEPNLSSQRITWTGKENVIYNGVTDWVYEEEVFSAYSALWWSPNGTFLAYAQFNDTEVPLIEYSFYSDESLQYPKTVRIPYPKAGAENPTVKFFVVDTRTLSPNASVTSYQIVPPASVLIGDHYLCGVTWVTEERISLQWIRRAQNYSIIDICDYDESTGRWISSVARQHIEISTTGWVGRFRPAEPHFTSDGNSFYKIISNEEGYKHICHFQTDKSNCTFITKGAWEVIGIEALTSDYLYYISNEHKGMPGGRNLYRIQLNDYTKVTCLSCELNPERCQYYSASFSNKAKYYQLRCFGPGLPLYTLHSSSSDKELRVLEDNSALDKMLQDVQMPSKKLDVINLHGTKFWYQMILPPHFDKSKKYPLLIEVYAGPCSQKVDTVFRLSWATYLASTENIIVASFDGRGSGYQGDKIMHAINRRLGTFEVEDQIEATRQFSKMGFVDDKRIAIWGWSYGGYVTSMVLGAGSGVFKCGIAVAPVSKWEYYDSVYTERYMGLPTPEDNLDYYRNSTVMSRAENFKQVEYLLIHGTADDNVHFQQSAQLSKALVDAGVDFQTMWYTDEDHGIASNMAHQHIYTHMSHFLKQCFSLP
The series is described as follows: Measurement of the DPP-IV activity (fluorimetric H-Ala-Pro-AFC conversion). It counts as biochemical. The settings on record: DPP-IV 1 mU/ml, H-Ala-Pro-AFC 15 μM, Tris/HCl 40 mM pH 7.4, room temperature. As for the experimental part:
The reaction was carried out at room temperature for various times (typically 10 min) and stopped at the end of the reaction by adding 20 μl of ZnCl2(1 M). […] When inhibitors were added, the added buffer volume was adapted so that a total volume of 200 μl was maintained for the assay mixture.
As to `CC(C)=CCn1c(N2CCC3CNCC32)nc2c1c(=O)n(CC(O)c1ccccc1)c(=O)n2C` (stereo not shown) [Example 14, 8-(Hexahydropyrrolo[3,4-b]pyrrol-1-yl)-1-(2-hydroxy-2-phenylethyl)-3-methyl-7-(3-methyl-but-2-enyl)-3,7-dihydropurine-2,6-dione hydrochloride], the IC50 stood at 0.012 µM.
For the compound `CC(C)=CCn1c(N2CCC3CNCC32)nc2c1c(=O)n(CC(=O)c1ccccc1)c(=O)n2CC(F)(F)F` (stereo not shown) [Example 35, 8-(Hexahydropyrrolo[3,4-b]pyrrol-1-yl)-7-(3-methylbut-2-enyl)-1-(2-oxo-2-phenylethyl)-3-(2,2,2-trifluoroethyl)-3,7-dihydropurine-2,6-dione hydrochloride], 0.05 µM corresponded to half-maximal inhibition (IC50).
Consider `CC(C)=CCn1c(N2CCC3CNCC32)nc2c1c(=O)n(CC(=O)c1cccc(Cl)c1)c(=O)n2C` (stereo not shown) [Example 42, 1-[2-(3-Chlorophenyl)-2-oxo-ethyl]-8-(hexahydropyrrolo[3,4-b]pyrrol-1-yl)-3-methyl-7-(3-methylbut-2-enyl)-3,7-dihydropurine-2,6-dione], for which half-maximal inhibition (IC50) was put at 0.01 µM.
`CCn1c(=O)n(CC(=O)c2ccccc2)c(=O)c2c1nc(N1CCC3CNCC31)n2CC=C(C)C` (stereo not shown) [Example 15, 3-Ethyl-8-(hexahydropyrrolo[3,4-b]pyrrol-1-yl)-7-(3-methylbut-2-enyl)-1-(2-oxo-2-phenyl-ethyl)-3,7-dihydropurine-2,6-dione hydrochloride] showed an IC50 of 0.005 µM.
`CC(C)=CCn1c(N2CCC3CNCC32)nc2c1c(=O)n(CCc1ccccc1)c(=O)n2C1CC1` (stereo not shown) [Example 21, 3-Cyclopropyl-8-(hexahydropyrrolo[3,4-b]pyrrol-1-yl)-7-(3-methylbut-2-enyl)-1-phenethyl-3,7-dihydropurine-2,6-dione hydrochloride] showed an IC50 of 0.071 µM.
Compound `CC(C)=CCn1c(N2CCC3CNCC32)nc2c1c(=O)n(CC(=O)c1ccccc1Cl)c(=O)n2C` (stereo not shown) [Example 41, 1-[2-(2-Chlorophenyl)-2-oxo-ethyl]-8-(hexahydropyrrolo[3,4-b]pyrrol-1-yl)-3-methyl-7-(3-methylbut-2-enyl)-3,7-dihydropurine-2,6-dione trifluoroacetate] registered an IC50 of 0.0105 µM.
The same measure, in the same setting: for `Cn1c(=O)n(CC(=O)c2ccccc2)c(=O)c2c1nc(N1CCC3CNCC31)n2Cc1ccccc1` (stereo not shown) [Example 5, 7-Benzyl-8-(hexahydropyrrolo[3,4-b]pyrrol-1-yl)-3-methyl-1-(2-oxo-2-phenylethyl)-3,7-dihydropurine-2,6-dione hydrochloride] the value was 0.0072 µM; for `CC(C)=CCn1c(N2CCC3CNCC32)nc2c1c(=O)n(Cc1nc3cc(F)ccc3s1)c(=O)n2C` (stereo not shown) [Example 16, 1-(5-Fluorobenzothiazol-2-ylmethyl)-8-(hexahydropyrrolo[3,4-b]pyrrol 1-yl)-3-methyl-7-(3-methylbut-2-enyl)-3,7-dihydropurine-2,6-dione hydrochloride], 0.019 µM.
Compound `Cn1c(=O)c2c(nc(N3CCC4CNCC43)n2Cc2ccccc2Cl)n(C)c1=O` (stereo not shown) [Example 97, 7-(2-Chlorobenzyl)-8-(hexahydropyrrolo[3,4-b]pyrrol-1-yl)-1,3-dimethyl-3,7-dihydropurine-2,6-dione trifluoroacetate] had an IC50 of 0.02 µM.

System in another series: not given
Assay: not given
Conditions: not given
Turning to `CC(C)=CCn1c(N2CC[C@@H]3CN(C)C[C@@H]32)nc2c1c(=O)n(CC(=O)c1ccccc1)c(=O)n2C` (relative stereo) [Example 2, 3-Methyl-7-(3-methylbut-2-enyl)-8-(cis-5-methylhexahydropyrrolo[3,4-b]pyrrole-1-yl)-1-(2-oxo-2-phenylethyl)-3,7-dihydropurine-2,6-dione], the melting point is 73.5 °C.

Values taken from patent publication US7888343B2, “Substituted, bicyclic 8-pyrrolidinoxanthines, and methods for their use as inhibitors of dipeptidyl peptidase” (Sanofi-A Ventis Deutschland GmbH, priority 2004, dated 2011).
